{
  "source": "patent US10106519B2",
  "about": "“3-phenyl-7-hydroxy-isocoumarins as macrophage migration inhibitory factor (MIF) inhibitors” (The Provost, Fellows, Foundation Scholars, & the Other …, priority 2014, dated 2018)",
  "key": {"MIF tautomerase": {"target": "T1, MIF tautomerase (Homo sapiens, UniProt P14174)", "T1 construct": "host or cells: E. coli BL21", "T1 sequence (P14174 2-115 limits assumed)": "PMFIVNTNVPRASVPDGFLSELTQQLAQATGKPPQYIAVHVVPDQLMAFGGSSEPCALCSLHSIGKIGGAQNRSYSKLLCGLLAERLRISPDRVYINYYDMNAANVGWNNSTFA", "test": "MIF tautomerase inhibition assay", "assay_type": "biochemical", "details": "panel of 25 potential inhibitors, 100 μM (FIG. 1, FIG. 3)", "protocol": "Human recombinant MIF was purified as per Bernhagen et al. (Biochemistry, 1994. 33(47): p. 14144-55). Briefly, BL21 E. coli cells expressing the pET11b-MIF construct were grown to an absorbance at 600 nm (OD) of […]. Isopropyl 1-thio-P-D-galactopyranoside (IPTG) (Sigma—cat no. 16758) was added to a final concentration of 1 mM to induce expression of the MIF gene and incubated for another 3 hours. Bacteria were then harvested by centrifugation and the cell pellets were then frozen. Protein purification was then out sourced to Scottish Biomedical, where the bacterial pellets were thawed and resuspended in 3 ml of Tris-buffered saline. The bacteria were then lysed by adding an equivalent number of glass beads and vortexing strongly for 10 minutes. Glass beads were removed by centrifugation at 1000 g for 10 minutes and the bacterial extract was centrifuged at 1000 g for a further 30 minutes. The supernatant was then sterile-filtered through a […] membrane filter and put through a MONO Q anion exchange chromatography column. MIF was eluted using Tris-buffered saline in the first flow-through fractions and pooled and placed on ice. These pooled fractions were then applied to a C8-SepPak reverse phase column. Unbound material was eluted by washing with water and 20% acetonitrile/water. MIF was then eluted using 6 column volumes of 60% acetonitrile/water. This sample was then renatured by dissolving MIF at a concentration of […] in 20 mM sodium phosphate buffer containing 8M urea and 5 mM DTT and dialysed against 20 mM sodium phosphate buffer. […]\nL-dopachrome methyl ester was prepared at 2.4 mM through oxidation of L-3,4-dihydroxyphenylalanine methyl ester with sodium periodate. The solution was mixed well and placed at room temperature for 5 minutes before being placed on ice in the dark. 100 ng of rMIF was added to each of the Tautomerase Inhibitors or ISO-1 at a number of concentrations (1, 50 and 100 μM) with substrate. The decrease in absorbance was measured with a spectrophotometer at 475 nm every 10 seconds for 10 minutes.\nThe rate of the reaction of rMIF and substrate alone was measured over time at 475 nm. This was compared to the rate of this reaction with the addition of 100 μM of each of the inhibitors. Inhibition was calculated as the percentage in the reduction of the rate of change with the addition of the inhibitor averaged over five minutes."}, "[1]": {"tested_on": "Lewis Lung carcinoma cells", "test": "Subcutaneous LLC1 tumour model with in vivo tautomerase inhibitor treatment", "parameters": "species or system C57BL/6 mice", "protocol": "Log phase cultures of LLC-1 cells were harvested by trypsinisation and washed three times with sterile phosphate buffered saline (PBS) and resuspended at a cell density of 5×10^5/ml in PBS. Animals were shaved with an electric shaver 24 hours before subcutaneous injection. 5×10^5 Lewis Lung cells were injected subcutaneously into the left flank of C57BL/6 mice of 6-8 weeks. Animals were monitored for the duration of the experiment and tumour measurements were recorded twice weekly with a digital callipers. Tumour volume (mm^3) was calculated as 0.5×L×W^2, where length is representative of the larger tumour diameter and the width represents the smaller tumour diameter. Animals are sacrificed when tumours reach a diameter of 15 mm or if tumours become ulcerated. Tumours are then removed along with the lungs, spleen and liver.\n30 minutes prior to LLC-1 inoculation, inhibitors (TI 19/ISO-1) were administered at a concentration of 35 mg/kg in a volume of 100 μl 5% DMSO in sterile PBS. Control groups were given injections of vehicle 5% DMSO in sterile PBS or sterile PBS alone. Animals were treated twice weekly for four weeks.\nIn order to assess the antitumour activity of the novel tautomerase inhibitors in vivo, a subcutaneous LLC-1 cell model was set up. The subcutaneous model was chosen so that tumours could be easily visualised and measured during the course of the experiment and to allow assessment of the growth of the tumour in real time. Lewis Lung carcinoma cells (5×10^5) were injected sub-cutaneously into the left flank of C57BL/6 mice. Caliper measurements were taken twice weekly and tumour volume (mm^3) was calculated as 0.5×L×W^2. […] The cut off point for this model was when the tumour measured 15 mm in diameter. This model gave us an indication of normal tumour growth in this subcutaneous model. It can be seen from this model that from day 22 to day 28 the size of the tumour grows considerably.\nOnce it was determined that the enzymatic activity played a role in the growth of tumours, the subcutaneous LLC model was then used to assess the efficiency of the small weight molecular inhibitors. C57/B16 mice were injected intraperitoneally with 35 mg/kg of each of the inhibitors 30 minutes prior to subcutaneous tumour inoculation and again twice weekly for 4 weeks. Animals were monitored daily and tumour measurements taken until the tumour measured 15 mm in diameter."}},
  "note": "Entries after “also recorded” stand apart in the source; their conditions may differ.",
  "data": [
    {"smiles": "Cc1ccccc1-c1cc2ccccc2c(=O)o1", "note": "[TI 19]", "values": [
      {"measurement": "inhibition of MIF tautomerase enzymatic activity, in words", "setting": "MIF tautomerase", "result": "highest percentage inhibition of MIF enzymatic activity; also recorded: significantly more potent than the commercially available small molecule MIF inhibitor ISO-1"},
      {"measurement": "tumour volume", "setting": "[1]; 35 mg/kg intraperitoneally 30 min prior to inoculation and twice weekly (FIG. 8)", "result": "116.1±30.41", "unit": "mm^3"},
      {"measurement": "reduction in tumour size, in words", "setting": "[1]; 35 mg/kg intraperitoneally, versus untreated or vehicle (DMSO) group (FIG. 8)", "result": "significant reduction in tumour size; also recorded: significant reduction in tumour volume"},
      {"measurement": "effectiveness in reducing tumour size relative to ISO-1", "setting": "[1]; at 28 days", "result": "approximately twice as effective"}
    ]}
  ]
}
